In patent publication US9815863B2, “Hydrogen bond forming fluoro ketolides for treating diseases” (priority 2010, dated 2017):
Values after ≈ are worked out from the molar mass of the structure shown.

Assays:
[1] = test system: S. aureus ribosomes (23S rRNA); experiment: RNA footprinting (ribosome chemical probing), wild-type S. aureus ribosomes; format: binding; conditions: 100 μM antibiotic
Method: (§1) Ribosome chemical probing. rRNA probing was done following standard protocols (Merryman, C., and H. F. Noller. 1998. Footprinting and modification-interference analysis of binding sites on RNA, p. 237-253. In C. W. J. Smith (ed.), RNA:Protein Interactions, A Practical Approach. Oxford University Press, Oxford), with minor modifications. Briefly, 200 nM ribosomes were incubated with 100 μM antibiotic in 50 μL of buffer B (80 mM HEPES-KOH [pH 7.8], 20 mM MgCl2, 100 mM NH4Cl, 1.5 mM dithiothreitol) for 10 min at 37° C., followed by 10 min at 20° C. Modifying reagents (dimethyl sulfate [DMS], kethoxal, or 1-cyclohexyl-3-(2-morpholinoethyl)carbodiimide metho p-toluene sulfonate [CMCT]) were added and the modification reaction was carried out for 10 min at 37° C. After quenching the reaction and ethanol precipitation, rRNA was extracted and the distribution of modified nucleotides was assessed by primer extension.
(§2) Interactions of CEM-101 with wild-type E. coli and S. aureus ribosomes in solution. […] 1987. Chloramphenicol, erythromycin, carbomycin and vernamycin B protect overlapping sites in the peptidyl transferase region of 23S ribosomal RNA. Biochimie 69:879-884). Also included in this study was a C3-cladinose cousin of CEM-101, CEM-103, which lacks the C2-linked fluorine atom.

S. aureus ribosome = experiment: Competition binding with [14C]erythromycin, S. aureus ribosome
Method: (§3) Competition binding studies. Binding of erythromycin to E. coli and S. aureus ribosomes and competition experiments were done by size-exclusion chromatography using Bio-Gel P30 spin columns as described in Xiong, L., Y. Korkhin, and A. S. Mankin. 2005. Binding site of the bridged macrolides in the Escherichia coli ribosome. Antimicrob. Agents Chemother. 49:281-288.
(§4) For competition binding experiments, ribosomes (100 nM) were preincubated with 100 nM [^14C]erythromycin (48.8 mCi/mmol; PerkinElmer) in 160 μL of buffer A at 37° C. for 15 min, then at 20° C. for 10 min. Competing antibiotics were added at varying concentrations, and the binding mixture was incubated at 20° C. for 100 min. The reactions were loaded onto the spin columns and the amount of ribosome-associated radioactivity was measured as described above. Binding data were analyzed using Prism software (GraphPad). Cell free transcription-translation assays.

[2] = test system: Streptococcus pyogenes Tel^S, Mac^S; experiment: MIC against streptococci clinical isolates (Table 3); format: cell-based; conditions: Streptococcus pyogenes, 10 strains
[3] = test system: Streptococcus pneumoniae Pen^S, Tel^S, Mac^S; experiment: as above; format: cell-based; conditions: Streptococcus pneumoniae, 10 strains
[4] = test system: bacterial protein synthesis (E. coli S30 extract); experiment: E. coli cell-free transcription-translation (TnT) S30 system, firefly luciferase synthesis; conditions: read-out: IC50 of inhibition of firefly luciferase synthesis, ribosomes 600 nM
[5] = test system: eukaryotic ribosome (rabbit reticulocyte lysate); experiment: Rabbit reticulocyte cell-free translation system, luciferase synthesis; format: biochemical; conditions: concentrations up to 50 μM
Method: The rabbit reticulocyte cell-free translation system (Promega, Cat. No. L4540) was used to assay the effect of the drugs on activity of the eukaryotic ribosome. […] Polyadenylated luciferase mRNA (Promega, Cat. No. L4561) was denatured before use by incubating the RNA at 65° C. for 3 min and then placed on ice. Translation mix (2 μL) was mixed with the rabbit reticulocyte lysate to start the reaction. The translation mix contained 0.3 μL of denatured luciferase mRNA (0.3 μg), 0.2 μL of 1 mM amino acid mixture, 0.2 μL of ribonuclease inhibitor (8U, Roche, Cat. No. 03 335 399001), 0.4 μL of 2.5 M potassium chloride, and 0.9 μL of water. Reactions were incubated at 30° C. for 30 min and then placed on ice.

[6] = test system: E. coli ribosomes (23S rRNA); experiment: RNA footprinting (ribosome chemical probing), wild-type E. coli ribosomes; format: binding; conditions: 100 μM antibiotic
Method: as §1, §2

S. aureus 70S ribosomes = experiment: Saturation (direct) binding of radiolabeled drug to S. aureus wild-type ribosomes, spin-column
Method: Ribosomes were prepared from E. coli, strain MRE 600, S. aureus strain ATCC 29212, or S. aureus strain N315 by standard protocols (Spedding™, G. 1990. Isolation and analysis of ribosomes from prokaryotes, eukaryotes, and organelles, p. 1-29. In G. Spedding (ed.), Ribosomes and protein synthesis, a practical approach. Oxford University Press, Oxford, United Kingdom; Adams, P. D., P. V. Afonine, G. Bunkoczi, V. B. Chen, I. W. Davis, N. Echols, J. J. Headd, L. W. Hung, G. J. Kapral, R. W. Grosse-Kunstleve, A. J. McCoy, N. W. Moriarty, R. Oeffner, R. J. Read, D. C. Richardson, J. S. Richardson, T. C. Terwilliger, and P. H. Zwart. 2010. PHENIX: a comprehensive Python-based system for macromolecular structure solution. Acta Crystallogr. D. Biol. Crystallogr. 66:213-221).
Competition binding studies. […]
Direct antibiotic binding experiments were done by incubating ribosomes at a 100 nM concentration with varying concentrations of radiolabeled drug in a total volume of 160 μL in buffer A (20 mM Tris-HCl [pH 7.5], 10 mM MgCl2, 150 mM NH4Cl, 6 mM 2-mercaptoethanol) at 37° C. for 15 min, then at 20° C. for 10 min. […] Radioactivity was measured in a scintillation counter and used to calculate the amount of the radiolabeled drug bound to ribosomes.

[7] = test system: Streptococcus pyogenes Tel^R, Mac^R; experiment: MIC against streptococci clinical isolates (Table 3); format: cell-based; conditions: Streptococcus pyogenes
E. coli ribosome = experiment: Competition binding with [14C]erythromycin, E. coli ribosome
Method: as §3, §4

Structure (SMILES): CC[C@H]1OC(=O)[C@@](C)(F)C(=O)[C@H](C)[C@@H](O[C@@H]2O[C@H](C)C[C@H](N(C)C)[C@H]2O)[C@](C)(OC)C[C@@H](C)C(=O)[C@H](C)[C@H]2N(CCCCn3cc(-c4cccc(N)c4)nn3)C(=O)O[C@]12C [CEM-101]
- Protection of A752 from DMS modification ([1]; S. aureus ribosomes): strongly protects
- Protection of A2058 and A2059 in domain V of 23S rRNA from modification with DMS ([1]; S. aureus wild-type ribosomes): protect
- Kd (S. aureus ribosome; S. aureus ribosome, resulting from competition IC50): 12 ± 1 nM
- IC50 (S. aureus ribosome; competition with 100 nM [14C]erythromycin, 100 nM S. aureus ribosomes, read-out: IC50 of displacement of erythromycin): 117 ± 3 nM
- MIC50 ([2]; read-out: MIC50): 0.03 µg/mL (≈ 0.0355 µM)
- MIC90 ([2]; read-out: MIC90): 0.03 µg/mL (≈ 0.0355 µM)
- MIC50 ([3]; read-out: MIC50): 0.03 µg/mL (≈ 0.0355 µM)
- MIC90 ([3]; read-out: MIC90): 0.03 µg/mL (≈ 0.0355 µM)
- IC50 [4]: 1100 nM
- Effect on the synthesis of luciferase [5]: no effect
- Protection of A752 from DMS modification ([6]; E. coli ribosomes): strongly protects
- Protection of A2058 and A2059 in domain V of 23S rRNA from modification with DMS ([6]; E. coli wild-type ribosomes): protect
- Kd (S. aureus 70S ribosomes): 50 ± 13 nM
- MIC50 [7]: 0.125 µg/mL (≈ 0.148 µM)
- MIC90 ([7]; S. pyogenes Tel^R, Mac^R, 9 strains (8 ermB, 1 ermA, constitutive), read-out: MIC90): 0.25 µg/mL (≈ 0.296 µM)
- Kd (E. coli ribosome; E. coli ribosome, resulting from competition IC50): 62 ± 3 nM
- IC50 (E. coli ribosome; competition with 100 nM [14C]erythromycin, 100 nM E. coli ribosomes, read-out: IC50 of displacement of erythromycin): 155 ± 8 nM
